# Assay results from patent US20030134859A1 (SANKYO COMPANY, LIMITED, priority 2000, published 2003).
# Target: T1, human PPAR γ 2 (Homo sapiens, UniProt P37231)
# T1 construct: expressed in transfected cells; host or cells: human osteosarcoma MG63, transiently co-transfected with pSG5-hPPARg and the reporter pGV-P2-PPRE
# T1 sequence (P37231 1-505): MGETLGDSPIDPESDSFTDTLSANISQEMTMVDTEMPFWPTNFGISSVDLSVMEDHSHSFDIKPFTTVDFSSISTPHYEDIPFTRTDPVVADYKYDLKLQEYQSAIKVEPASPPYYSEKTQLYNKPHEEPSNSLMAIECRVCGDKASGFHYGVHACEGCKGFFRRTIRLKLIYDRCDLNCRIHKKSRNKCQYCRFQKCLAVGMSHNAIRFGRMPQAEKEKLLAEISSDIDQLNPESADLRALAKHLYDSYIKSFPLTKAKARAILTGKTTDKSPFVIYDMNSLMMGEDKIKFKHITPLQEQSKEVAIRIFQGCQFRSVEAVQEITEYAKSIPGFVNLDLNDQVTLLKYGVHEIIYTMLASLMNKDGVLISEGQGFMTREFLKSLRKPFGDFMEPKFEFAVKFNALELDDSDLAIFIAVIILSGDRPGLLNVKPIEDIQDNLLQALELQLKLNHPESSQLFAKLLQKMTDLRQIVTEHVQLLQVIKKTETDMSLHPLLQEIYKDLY
# Assay: Inhibitory activity against PPAR γ transcription in the presence of agonist compound A, luciferase reporter
# Assay type: cell-based
# Details: in the presence of 10 nM compound A (agonist); MG63 cells transfected with pSG5-hPPARg and pGV-P2-PPRE; 24 hr
row,Compound,IC50 [nM]
1,O=C(Nc1ccc(Cl)nn1)c1cc([N+](=O)[O-])ccc1Cl [Example 89],400
2,"Cc1nnc(NS(=O)(=O)c2ccc(NC(=O)c3cc([N+](=O)[O-])ccc3Cl)cc2)s1 [Example 101, N-[4-[(5-Methyl-[1,3,4]thiadiazol-2-yl)aminosulfonyl]phenyl]-(2-chloro-5-nitrophenyl)carboxamide]",61
3,"Cc1noc(NS(=O)(=O)c2ccc(NC(=O)c3cc([N+](=O)[O-])ccc3Cl)cc2)c1C [Example 104, N-[4-[(3,4-Dimethylisoxazol-6-yl)aminosulfonyl]phenyl]-(2-chloro-5-nitrophenyl)carboxamide]",270
4,"O=C(Nc1ccc(-c2ccc(NC(=O)c3cc([N+](=O)[O-])ccc3Cl)cc2)cc1)c1cccnc1 [Example 124, N-[4-[4-(Pyridin-3-ylcarbonylamino)phenyl]phenyl]-(2-chloro-5-nitrophenyl)carboxamide]",8.1
5,"O=C(Nc1ccc(-c2ccc(NC(=O)c3cc([N+](=O)[O-])ccc3Cl)cc2)cc1)c1ccncc1 [Example 126, N-[4-[4-(Pyridin-4-ylcarbonylamino)phenyl]phenyl]-(2-chloro-5-nitrophenyl)carboxamide]",14
6,"O=C(Nc1ccc(NS(=O)(=O)c2ccccc2)cc1)c1cc([N+](=O)[O-])ccc1Cl [Example 127, N-(4-Benzenesulfonylaminophenyl)-(2-chloro-5-nitrophenyl)carboxamide]",11
7,"CCS(=O)(=O)Nc1ccc(-c2ccc(NC(=O)c3cc([N+](=O)[O-])ccc3Cl)cc2)cc1 [Example 130, N-[4-(4-Ethanesulfonylaminophenyl)phenyl]-(2-chloro-5-nitrophenyl)carboxamide]",11
8,"O=C(Nc1ccc(S(=O)(=O)N2CCCCC2)cc1)c1cc([N+](=O)[O-])ccc1Cl [Example 151, N-[4-(Piperidyisulfonyl)phenyl]-(2-chloro-5-nitrophenyl)carboxamide]",12
9,"O=C(Nc1ccc(S(=O)(=O)N2CCOCC2)cc1)c1cc([N+](=O)[O-])ccc1Cl [Example 153, N-[4-(Morpholin-4-ylsulfonyl)phenyl]-(2-chloro-5-nitrophenyl)carboxamide]",49
10,"CC(=O)c1cccc(NC(=O)c2cc([N+](=O)[O-])ccc2Cl)c1 [Example 156, N-(3-Acetylphenyl)-(2-chloro-5-nitrophenyl)carboxamide]",100
11,"O=C(Nc1ccc(C(=O)N2CCCCC2)cc1)c1cc([N+](=O)[O-])ccc1Cl [Example 159, N-[4-(Piperidylcarbonyl)phenyl]-(2-chloro-5-nitrophenyl)carboxamide]",11
12,"O=C(Nc1ccc(-n2ccnc2)cc1)c1cc([N+](=O)[O-])ccc1Cl [Example 174, N-[4-(Imidazol-1-yl)phenyl]-(2-chloro-5-nitrophenyl)carboxamide]",9.4
13,"CC(C)(C)c1cc(NS(=O)(=O)c2ccc(NC(=O)c3cc([N+](=O)[O-])ccc3Cl)cc2)cc(C(C)(C)C)c1O [Example 175, N-[4-[(3,5-di-tert-Butyl-4-hydroxyphenyl)aminosulfonyl]phenyl]-(2-chloro-5-nitrophenyl)carboxamide]",99
14,"O=C(Nc1ccc(-c2ccc(N3CCCCC3)cc2)cc1)c1cc([N+](=O)[O-])ccc1Cl [Example 177, N-[4-[4-(Piperidin-1-yl)phenyl]phenyl]-(2-chloro-5-nitrophenyl)carboxamide]",94
15,"CC(C)(C)OC(=O)Nc1ccc(-c2csc(NC(=O)c3cc([N+](=O)[O-])ccc3Cl)n2)cc1 [Example 190, N-[4-(4-tert-Butoxycarbonylaminophenyl)thiazol-2-yl]-(2-chloro-5-nitrophenyl)carboxamide]",36
16,"CCCN(CCC)c1ccc(-c2ccc(NC(=O)c3cc([N+](=O)[O-])ccc3Cl)cc2)cc1 [Example 194, N-[4-[4-(N,N-Dipropylamino)phenyl]phenyl]-(2-chloro-5-nitrophenyl)carboxamide]",330
17,N-[4-(4-Methylbenzoylamino)phenyl]phenyl]-(2-chloro-5-nitrophenyl)carboxamide [Example 122],7.6

# The remaining compounds from weak to strong by IC50, led by results:
row,IC50 [nM],Compound
1,110,"O=C(Nc1cnccn1)c1cc([N+](=O)[O-])ccc1Cl [Example 140, N-(Pyrazin-2-yl)-(2-chloro-5-nitrophenyl)carboxamide]"
2,81,N-[3-(Pyrrolidinylsulfonyl)phenyl]-(2-chloro-5-nitrophenyl)carboxamide [Example 154]
3,48,N-[4-[4-(Pyrrolidin-1-ylamino)phenyl]phenyl]-(2-chloro-5-nitrophenyl)carboxamide [Example 171]
4,35,N-[4-(Benzenesulfonylaminophenyl)phenyl]-(2-chloro-5-nitrophenyl)carboxamide [Example 128]
5,33,"CCCCCCN(CC)c1ccc(NC(=O)c2cc([N+](=O)[O-])ccc2Cl)cc1 [Example 188, N-[4-(N-Ethyl-N-hexylamino)phenyl]-(2-chloro-55 nitrophenyl)carboxamide]"
6,13,"O=C(Nc1ccc(-c2ccc(NC(=O)c3cc([N+](=O)[O-])ccc3Cl)cc2)cc1)c1ccccc1 [Example 120, N-[4-(4-Benzoylaminophenyl)phenyl]-(2-chloro-5-nitrophenyl)carboxamide]"
7,9.8,"CC(=O)c1ccc(NC(=O)c2cc([N+](=O)[O-])ccc2Cl)cc1 [Example 155, N-(4-Acetylphenyl)-(2-chloro-5-nitrophenyl)carboxamide]"
8,8.6,"CC(=O)Nc1ccc(-c2ccc(NC(=O)c3cc([N+](=O)[O-])ccc3Cl)cc2)cc1 [Example 118, N-[4-(4-Acetylaminophenyl)phenyl]-(2-chloro-5-nitrophenyl)carboxamide]"
